# Results taken from ChEMBL document CHEMBL1141417, “2,6,8-trisubstituted 1-deazapurines as adenosine receptor antagonists” (J Med Chem, 2007).
# pKi: −log10 of the molar value.
# How the values were obtained:
# [1] = biological target: T1, Adenosine receptor A2a (Homo sapiens, UniProt P29274); test: Displacement of [3H]ZM241385 from human adenosine A2A receptor expressed in CHO cells at 1 uM; assay type: cell-based
# [2] = biological target: T2, Adenosine receptor A1 (Homo sapiens) (UniProt P30542); test: Displacement of [3H]DPCPX from human adenosine A1 receptor expressed in CHO cells at 1 uM; assay type: cell-based
# T2 sequence (whole entry): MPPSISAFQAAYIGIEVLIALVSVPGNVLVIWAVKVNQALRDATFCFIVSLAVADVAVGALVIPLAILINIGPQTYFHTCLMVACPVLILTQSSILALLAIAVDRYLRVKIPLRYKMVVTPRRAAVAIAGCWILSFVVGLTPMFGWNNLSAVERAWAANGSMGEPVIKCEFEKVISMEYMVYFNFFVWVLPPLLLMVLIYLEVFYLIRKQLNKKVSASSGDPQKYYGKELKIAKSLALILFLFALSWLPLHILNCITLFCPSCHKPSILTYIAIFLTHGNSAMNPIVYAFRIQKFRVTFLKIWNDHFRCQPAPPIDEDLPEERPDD
# [3] = biological target: T3, Adenosine receptor A3 (Homo sapiens) (UniProt P0DMS8); test: Displacement of [125I]AB-MECA from human adenosine A3 receptor expressed in CHO cells at 1 uM; assay type: cell-based
# T3 sequence (whole entry): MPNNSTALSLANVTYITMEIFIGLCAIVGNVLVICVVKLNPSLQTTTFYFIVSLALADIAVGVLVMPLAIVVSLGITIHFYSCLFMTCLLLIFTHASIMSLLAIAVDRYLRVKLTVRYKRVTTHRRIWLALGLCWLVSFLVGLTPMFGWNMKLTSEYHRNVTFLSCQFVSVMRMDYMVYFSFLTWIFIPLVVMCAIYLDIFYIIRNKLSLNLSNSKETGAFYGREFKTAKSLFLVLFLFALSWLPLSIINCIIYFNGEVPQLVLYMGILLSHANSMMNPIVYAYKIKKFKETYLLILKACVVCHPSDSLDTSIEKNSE
# [4] = biological target: T1, Adenosine receptor A2a; test: Displacement of [3H]ZM-241385 from human adenosine A2A receptor expressed in CHO cells; assay type: cell-based
# [5] = biological target: T2, Adenosine receptor A1 (Homo sapiens); test: Activity at human adenosine A1 receptor expressed in CHO cells assessed as effect on forskolin-stimulated cAMP production at 100 nM; assay type: functional, cell-based
# [6] = biological target: Adenosine receptors; A1 & A2a (Homo sapiens) (UniProt P30542+P29274); test: Selectivity for human adenosine A1 receptor over human adenosine A2A receptor; assay type: protein assay
# Adenosine receptors; A1 & A2a (Homo sapiens), sequence (P29274 whole entry, looked up, one chain of several): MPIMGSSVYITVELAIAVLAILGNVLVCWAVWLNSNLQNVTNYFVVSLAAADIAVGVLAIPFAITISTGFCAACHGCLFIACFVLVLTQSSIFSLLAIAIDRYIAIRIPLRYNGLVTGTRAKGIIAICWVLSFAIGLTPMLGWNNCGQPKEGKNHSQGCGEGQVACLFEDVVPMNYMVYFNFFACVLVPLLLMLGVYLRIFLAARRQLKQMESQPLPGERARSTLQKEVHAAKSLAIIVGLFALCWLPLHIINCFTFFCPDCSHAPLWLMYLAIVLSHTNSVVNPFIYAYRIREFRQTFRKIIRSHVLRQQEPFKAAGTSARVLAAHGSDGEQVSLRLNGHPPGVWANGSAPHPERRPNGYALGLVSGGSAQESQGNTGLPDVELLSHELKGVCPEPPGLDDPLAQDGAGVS
# [7] = biological target: T2, Adenosine receptor A1 (Homo sapiens); test: Activity at human adenosine A1 receptor in CHO cells assessed as effect on CPA induced inhibition of forskolin-stimulated cAMP production at 1 uM; assay type: functional, cell-based; settings: filed as antagonist
# [8] = biological target: T4, Adenosine receptor A3 (Homo sapiens, UniProt P0DMS8); test: Displacement of [125I]AB-MECA from human adenosine A3 receptor expressed in CHO cells; assay type: cell-based
# T4 sequence (P0DMS8 whole entry): T3 sequence (whole entry)
# [9] = biological target: T5, Adenosine receptor A1 (Homo sapiens, UniProt P30542); test: Displacement of [3H]DPCPX from human adenosine A1 receptor expressed in CHO cells; assay type: cell-based
# T5 sequence (P30542 whole entry): T2 sequence (whole entry)
# [10] = biological target: Adenosine receptors; A1 & A3 (Homo sapiens) (UniProt P30542+P0DMS8); test: Selectivity for human adenosine A1 receptor over human adenosine A3 receptor; assay type: protein assay
# [11] = biological target: T2, Adenosine receptor A1 (Homo sapiens); test: Activity at human adenosine A1 receptor expressed in CHO cells assessed as effect on forskolin-stimulated cAMP production at 100 uM; assay type: functional, cell-based; settings: filed as inverse agonist
# [12] = biological target: T5, Adenosine receptor A1; test: Activity at human adenosine A1 receptor in CHO cells assessed as effect on CPA induced inhibition of forskolin-stimulated cAMP production; assay type: functional, cell-based
# T1 sequence (P29274 whole entry): as the sequence (P29274 whole entry, looked up, one chain of several) above
Compound,Ki [4],Activity ([5]; filed as inverse agonist),Ratio Ki [6],Activity [7],Ki [8],Ki [9],pKi [4],further results
c1cnc2[nH]c(C3CCCC3)nc2c1,,,,,,,,inhibition [1]: 3%; inhibition [2]: 6%; inhibition [3]: 0%
CC(C)c1nc2c(-c3ccccc3)cc(-c3ccccc3)nc2[nH]1,0.23 µM (antagonist),Inverse agonist,377,Antagonist,0.0073 µM (antagonist),,,
CCc1nc2c(-c3ccccc3)cc(-c3ccccc3)nc2[nH]1,0.177 µM (antagonist),,,,0.0085 µM (antagonist),0.0024 µM (antagonist),,
CC(C)Cc1nc2c(-c3ccccc3)cc(-c3ccccc3)nc2[nH]1,0.189 µM (antagonist),Inverse agonist,> 300,Antagonist,0.025 µM (antagonist),0.00055 µM (antagonist),,Ratio Ki [10]: 45
Cn1cnc2c(NC3CCCC3)ncnc21,,,,,,,,Activity [11]: Inverse agonist
CCCc1nc2c(-c3ccccc3)cc(-c3ccccc3)nc2[nH]1,0.114 µM (antagonist),,,,0.069 µM (antagonist),0.0025 µM (antagonist),,
c1ccc(Cn2cnc3c(-c4ccccc4)cc(-c4ccccc4)nc32)cc1,,,,,,,,inhibition [1]: 2%; inhibition [2]: 38%; inhibition [3]: 15%
OC[C@H]1O[C@@H](n2cnc3c(NC4CCCC4)ncnc32)[C@H](O)[C@@H]1O,,,,,,,,Activity ([5]; filed as agonist): Agonist
c1ccc(-c2cc(-c3ccccc3)c3nc(C4CCCC4)[nH]c3n2)cc1,,Inverse agonist,> 1600,Antagonist,0.0069 µM (antagonist),,,inhibition [1]: 49%
CCc1nc2c(C)cc(C)nc2[nH]1,,,,,,0.101 µM (antagonist),,inhibition [1]: 8%; inhibition [3]: 49%
CC(C)(C)c1nc2c(-c3ccccc3)cc(-c3ccccc3)nc2[nH]1,,,,,0.115 µM (antagonist),0.0055 µM (antagonist),5.98,
CCC(CC)c1nc2c(-c3ccccc3)cc(-c3ccccc3)nc2[nH]1,0.247 µM (antagonist),Inverse agonist,,Antagonist,0.171 µM (antagonist),0.00087 µM (antagonist),,Ratio Ki [10]: 199
c1ccc(-c2cc(-c3ccccc3)c3nc[nH]c3n2)cc1,0.039 µM (antagonist),,33,,0.18 µM (antagonist),0.0012 µM (antagonist),,
O=c1[nH]c2nc(-c3ccccc3)cc(-c3ccccc3)c2[nH]1,0.192 µM (antagonist),,,,0.262 µM (antagonist),0.0086 µM (antagonist),,
c1ccc(-c2cc(-c3ccccc3)c3nc(C4CCCCC4)[nH]c3n2)cc1,0.194 µM (antagonist),Inverse agonist,215,Antagonist,0.637 µM (antagonist),,,IC50 [12]: 1.7 µM (antagonist); Ratio Ki [10]: 718
Cc1nc2c(-c3ccccc3)cc(-c3ccccc3)nc2[nH]1,0.375 µM (antagonist),,,,0.061 µM (antagonist),,,
